Test results as given in patent EP2915814A2, “Crystalline salts of sitagliptin” (priority 2008, dated 2010).
Where a name gives a salt, the structure may show the parent alone. Marks after values point to notes of the source that are not given here.

Key:
[1] = Stability studies (storage at 60 °C in closed bottles or at 40 °C / 75 % RH in an open bottle; related substances by HPLC); details: for Related Substances 2 W 40°C/75 % RH open / Related Substances 2 W 60°C closed: 2 weeks, 20160 min; for Related Substances 4 w 40°C/75 % RH closed / Related Substances 4 w 40°C/75 % RH open / Related Substances 4 w 60°C Closed bottle: 4 weeks, 40320 min; for Related Substances 12 weeks 40°C/75 % RH closed bottle / Related Substances 12 weeks 40°C/75 % RH open bottle: 120960 min; for Initial Related Substances: before storage
[2] = Hygroscopicity studies (water content after storage at 43 %, 75 % and 93 % relative humidity); assay type: physicochemical; details: for Initial water content: initial sample; for change during the hygroscopicity studies: 43 %, 75 % and 93 % relative humidity, confirmed by DSC of samples kept at 93 % relative humidity for 2 weeks; for Hygroscopicity 2 weeks 43 % rh: 2 weeks at 43 % rh; for Hygroscopicity 2 weeks 43 % rh / Hygroscopicity 2 weeks 75 % rh / Hygroscopicity 2 weeks 93 % rh: % Equilibrium moisture content, ss = semi solid state of sample, β = solid first changed into liquid and solidified again; for Hygroscopicity 2 weeks 75 % rh: 2 weeks at 75 % rh; for Hygroscopicity 2 weeks 93 % rh: 2 weeks at 93 % rh
Description: The salts of the present invention and the free base were studied under three different humidity conditions (43 % relative humidity, 75 % relative humidity, and 93 % relative humidity).

[3] = closed bottle, two weeks at 60 °C
[4] = closed bottle, four weeks at 60 °C
[5] = open bottle, twelve weeks at 40 °C and 75 % RH

Row | stability (degradation, related substances by HPLC) [1, 3] | Related Substances 2 W 40°C/75 % RH open [1] | Related Substances 2 W 60°C closed [1] | Related Substances 4 w 40°C/75 % RH closed [1] | Related Substances 4 w 40°C/75 % RH open [1] | Related Substances 4 w 60°C Closed bottle ([1]; closed bottle) | Related Substances 12 weeks 40°C/75 % RH closed bottle ([1]; closed bottle) | Related Substances 12 weeks 40°C/75 % RH open bottle ([1]; open bottle) | Initial Related Substances [1] | Hygroscopicity (water content) ([2]; 2 weeks 43 % rh) | Hygroscopicity (water content) ([2]; 2 weeks 75 % rh) | Hygroscopicity (water content) ([2]; 2 weeks 93 % rh) | Initial water content ([2]; before humidity storage) | Hygroscopicity 2 weeks 43 % rh [2] | Hygroscopicity 2 weeks 75 % rh [2] | Hygroscopicity 2 weeks 93 % rh [2] | Initial water content ([2]; before storage) | SMILES | other results
1 | stable | – | – | – | – | – | – | – | – | – | – | – | – | – | – | – | – | N[C@@H](CC(=O)N1CCn2c(nnc2C(F)(F)F)C1)Cc1cc(F)c(F)cc1F [maleate (non solvated), Sitagliptin Maleate Form II] | –
2 | – | 0.36% | 0.23% | 0.30% | 0.53% | 0.30% | 0.34% | 0.44% | 0.20% | – | – | – | – | – | – | – | – | N[C@@H](CC(=O)N1CCn2c(nnc2C(F)(F)F)C1)Cc1cc(F)c(F)cc1F [Q: HCl II] | –
3 | degradation was observed | 0.34% | 0.43% | 0.28% | 0.33% | 0.49% | 0.56% | 0.59% | 0.16% | 0.54% | 0.5% | 28.77 * % | 0.51% | – | – | – | – | N[C@@H](CC(=O)N1CCn2c(nnc2C(F)(F)F)C1)Cc1cc(F)c(F)cc1F [C: Lactate, Sitagliptin Lactate] | stability (degradation, related substances by HPLC) [1, 4]: showed a degradation; stability (degradation, related substances by HPLC) [1, 5]: shows degradation
4 | – | 0.27% | 0.37% | 0.46% | 0.39% | 0.46% | 0.52% | 0.39% | 0.36% | 0.19% | 0.22% | 0.3% | 0.19% | – | – | – | – | N[C@@H](CC(=O)N1CCn2c(nnc2C(F)(F)F)C1)Cc1cc(F)c(F)cc1F [Base, 7-[(3R)-3-amino-1-oxo-4-(2,4,5-trifluorophenyl)butyl)-5,6,7,8-tetrahydro-3-(trifluoromethyl)-1,2,4-triazolo[4,3-a]pyrazine, reference compound] | change during the hygroscopicity studies ([2]; listed as free base): did not show much change; stability (degradation, related substances by HPLC) ([1]; closed bottle, four weeks at 60 °C, listed as free base): stable; stability (degradation, related substances by HPLC) ([1]; closed bottle, two weeks at 60 °C, listed as free base): stable; stability (degradation, related substances by HPLC) ([1]; open bottle, twelve weeks at 40 °C and 75 % RH, listed as free base): stable
5 | – | 0.10% | 0.12% | 0.08% | 0.09% | 0.06% | 0.09% | 0.12% | 0.08% | – | – | – | – | – | – | – | – | N[C@@H](CC(=O)N1CCn2c(nnc2C(F)(F)F)C1)Cc1cc(F)c(F)cc1F [M: Phosphate H2O] | –
6 | stable | – | – | – | – | – | – | – | – | – | – | – | – | – | – | – | – | N[C@@H](CC(=O)N1CCn2c(nnc2C(F)(F)F)C1)Cc1cc(F)c(F)cc1F [phosphate monohydrate, sitagliptin dihydrogenphosphate, reference compound] | change during the hygroscopicity studies [2]: did not show much change
7 | degradation was observed | – | – | – | – | – | – | – | – | – | – | – | – | – | – | – | – | N[C@@H](CC(=O)N1CCn2c(nnc2C(F)(F)F)C1)Cc1cc(F)c(F)cc1F [maleate (solvated), Sitagliptin Maleate Form I] | –
8 | – | 0.16% | 0.16% | 0.08% | 0.08% | 0.12% | 0.07% | 0.11% | 0.11% | – | – | – | – | 2.89% | 3.37% | 4.04% | 2.08% | N[C@@H](CC(=O)N1CCn2c(nnc2C(F)(F)F)C1)Cc1cc(F)c(F)cc1F [N: Mesylate II] | –
9 | – | 0.05% | 0.01% | 0.01% | 0.01% | 0.01% | 0.14% | 0.15% | 0.04% | 3.86% | 4.36% | 4.49% | 1.4% | – | – | – | – | N[C@@H](CC(=O)N1CCn2c(nnc2C(F)(F)F)C1)Cc1cc(F)c(F)cc1F [B: HCl I, Sitagliptin Hydrochloride Form I] | stability (degradation, related substances by HPLC) ([1]; closed bottle, four weeks at 60 °C, listed as HCl form I): stable; stability (degradation, related substances by HPLC) ([1]; closed bottle, two weeks at 60 °C, listed as HCl form I): stable; stability (degradation, related substances by HPLC) ([1]; open bottle, twelve weeks at 40 °C and 75 % RH, listed as HCl form I): stable
10 | – | 0.24% | 1.81% | 0.49% | 0.61% | 4.06% | 1.09% | 0.99% | 0.05% | – | – | – | – | 2.24 ss % | β 4.81% | 24.85** % | 1.039% | N[C@@H](CC(=O)N1CCn2c(nnc2C(F)(F)F)C1)Cc1cc(F)c(F)cc1F [H: Glycolate] | –
11 | – | – | – | – | – | – | – | – | – | – | – | – | – | 1.13% | 0.49% | 0.96% | 0.68% | N[C@@H](CC(=O)N1CCn2c(nnc2C(F)(F)F)C1)Cc1cc(F)c(F)cc1F [K: Mesylate I] | –
12 | stable | 0.21% | 0.50% | 0.31% | 0.16% | 0.38% | 0.57% | 0.37% | 0.39% | 0.41% | 0.48% | 0.82% | 0.46% | – | – | – | – | N[C@@H](CC(=O)N1CCn2c(nnc2C(F)(F)F)C1)Cc1cc(F)c(F)cc1F [A: Phosphate, Sitagliptin Phosphate] | change during the hygroscopicity studies [2]: did not show much change; stability (degradation, related substances by HPLC) [1, 4]: stable; stability (degradation, related substances by HPLC) [1, 5]: stable
13 | – | – | – | – | – | – | – | – | – | – | – | – | – | 0.32% | 0.44% | 0.83% | 0.27% | N[C@@H](CC(=O)N1CCn2c(nnc2C(F)(F)F)C1)Cc1cc(F)c(F)cc1F [Q : HCl II] | –
14 | – | – | – | – | – | – | – | – | – | – | – | – | – | – | – | – | – | N[C@@H](CC(=O)N1CCn2c(nnc2C(F)(F)F)C1)Cc1cc(F)c(F)cc1F [maleate, sitagliptin maleate] | change during the hygroscopicity studies [2]: did not show much change; stability (degradation, related substances by HPLC) [1, 4]: showed a degradation
15 | – | – | – | – | – | – | – | – | – | – | – | – | – | 2.58% | 2.94% | 3.23% | 1.47% | N[C@@H](CC(=O)N1CCn2c(nnc2C(F)(F)F)C1)Cc1cc(F)c(F)cc1F [J: Mesylate II] | –
16 | – | 0.10% | 0.08% | 0.02% | 0.06% | 0.02% | 0.03% | 0.08% | 0.08% | 1.12% | 1.0% | 2.81% | 0.69% | – | – | – | – | N[C@@H](CC(=O)N1CCn2c(nnc2C(F)(F)F)C1)Cc1cc(F)c(F)cc1F [E: Sulfate I, Sitagliptin Sulfate Form I] | stability (degradation, related substances by HPLC) ([1]; closed bottle, four weeks at 60 °C, listed as sulfate (solvated)): stable; stability (degradation, related substances by HPLC) ([1]; closed bottle, two weeks at 60 °C, listed as sulfate (solvated)): stable
